Patent publication US6423829B1 (St. Jude Children's Research Hosital, priority 1997, dated 2002)
Where a name gives a salt, the structure may show the parent alone. Blank lines part the entries; values can stand above or below the molecule they belong to.

Assays:
[1] = biological target: T1, hENT2 (ei transporter) in CEM/N1-7 cells (Homo sapiens, UniProt Q14542); assay: 3H-uridine uptake in CEM/N1-7 cells in the presence of nucleoside transport inhibitors; format: cell-based; conditions: for effect on uridine transport in CEM/N1-7 cells: FIG. 1B
T1 construct: expressed in transfected cells; host or cells: CEM/C19 (nucleoside-transport-deficient, EBNA-1-expressing subline of human T-cell leukemia CEM) carrying plasmid pDR2/N1-7
T1 sequence (Q14542 1-456): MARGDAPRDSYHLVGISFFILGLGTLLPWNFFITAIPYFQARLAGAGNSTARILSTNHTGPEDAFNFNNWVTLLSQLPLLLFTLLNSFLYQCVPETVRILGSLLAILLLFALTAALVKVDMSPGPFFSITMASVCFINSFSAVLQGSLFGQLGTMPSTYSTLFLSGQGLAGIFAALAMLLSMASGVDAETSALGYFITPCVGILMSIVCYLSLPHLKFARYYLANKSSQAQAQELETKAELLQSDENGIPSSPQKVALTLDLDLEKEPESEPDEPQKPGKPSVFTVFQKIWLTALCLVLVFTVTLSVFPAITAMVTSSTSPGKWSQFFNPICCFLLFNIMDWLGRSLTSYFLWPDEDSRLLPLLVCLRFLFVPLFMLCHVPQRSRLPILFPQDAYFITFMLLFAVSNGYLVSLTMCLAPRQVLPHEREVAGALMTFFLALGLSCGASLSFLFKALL
Experimental: The values shown are means of duplicate assays and have been corrected for extracellular water space.
FIGS. 1B-1C depict the uptake of 10 μM ^3H-uridine determined at 22° C. in Na^+buffer using a 7.5 second uptake interval in the presence of nucleoside transport inhibitors. The uptake interval was initiated by simultaneous addition of the label and inhibitory nucleobase, nucleoside or nucleotide. […] This value was subtracted from the total uridine uptake values.
Removal of sodium from the buffer had no effect on transport in CEM/N1-7 indicating the presence of an equilibrative type transporter. […] (FIG. 1B). As expected from the permeant selectivity observed for ei activity in several cell lines [Plagemann et al., Biochim. Biophys. […] This was recently confirmed by Jarvis and colleagues [Osses et al., Biochem. J., 317:843-848 (1996)] by direct measurements of hypoxanthine in human vascular endothelial cells. […] All these features are consistent with those of an ei transporter, ie., an iENTP.

[2] = test system: concentrative nucleoside transporters (cif, cit, cib); conditions: at concentrations up to 10 μM; cited from earlier work
CEM/C19 cells = assay: DUP-785 toxicity and uridine rescue in CEM/C19 cells; format: cell-based, human
[3] = biological target: T2, human ei transporter in HeLa cells (Homo sapiens, UniProt Q14542); conditions: read-out: IC50 for inhibition of uridine transport via ei; cited from earlier work
T2 construct: the human ei transporter in HeLa cells where the IC50 values; host or cells: HeLa cells (endogenous)
T2 sequence (Q14542 1-456): T1 sequence (Q14542 1-456)

effect on uridine transport in CEM/N1-7 cells ([1]; 10 μM inhibitor): completely blocked
SMILES: OCCN(CCO)c1nc(N2CCCCC2)c2nc(N(CCO)CCO)nc(N3CCCCC3)c2n1 [DIP, bis(diethanolamino)-4,8-dipiperidinopyrimido-[5,4-d]-2,6-pyrimidine]
sensitivity of the concentrative nucleoside transporters [2]: insensitive

SMILES: Cc1c(-c2ccc(-c3ccccc3F)cc2)nc2ccc(F)cc2c1C(=O)O [DUP-785, 6-fluoro-2(2′--fluoro-1, 1′-biphenyl-4-yl)-3-methyl-4-quinoline carboxylic acid sodium salt]
sensitivity of cells to the de novo uridylate synthesis inhibitor (CEM/C19 cells): sensitive

effect on uridine transport in CEM/N1-7 cells ([1]; 0.1 μM inhibitor, 10 μM 3H-uridine, 22° C.): had no effect
effect on uridine transport in CEM/N1-7 cells ([1]; higher concentrations of inhibitor): Partial inhibition
SMILES: O=[N+]([O-])c1ccc(CSc2ncnc3c2ncn3C2OC(CO)C(O)C2O)cc1 [NBMPR, 6-[(4-nitrobenzyl)thio-9-β-D-ribofuranosylpurine]]
IC50 [3]: 6 µM
sensitivity of the concentrative nucleoside transporters [2]: insensitive

effect on uridine influx in CEM/N1-7 cells ([1]; competing nucleobase, nucleoside or nucleotide added with label, FIG. 1C): inhibited
SMILES: O=c1[nH]cnc2nc[nH]c12 [hypoxanthine]
